A word on the inhibition: it is the drop in the measured response relative to a control, in per cent. As a reminder, the IC50 is the point on the concentration scale where inhibition reaches its midpoint. Read a low IC50 as higher potency.

inhibition, IC50 and Ratio IC50 data for 39 molecules are collected here from ChEMBL document CHEMBL2057073, “Synthesis and structure-activity relationship studies of 1,3-disubstituted 2-propanols as BACE-1 inhibitors” (Bioorg Med Chem Lett, 2012).

A value given as a limit tells only on which side of the number the result lay.

Test [1] has as its target T1, Beta-secretase 1 (Homo sapiens, UniProt P56817). The experiment in a line: Inhibition of BACE1 at 100 uM by FRET assay.
The target of test [2] is T1, Beta-secretase 1. The experiment in a line: Inhibition of BACE1 at 50 uM by FRET assay.
The target in test [3] is T1, Beta-secretase 1. The experiment in a line: Inhibition of BACE1 at 25 uM by FRET assay.
The target of test [4] is T1, Beta-secretase 1. The experiment in a line: Inhibition of BACE1 by FRET assay.
Test [5] deals with Cathepsin D (Homo sapiens, UniProt P07339). The experiment in a line: Inhibition of cathepsin D by FRET assay.
Sequence of Cathepsin D (P07339 65-162 limits assumed): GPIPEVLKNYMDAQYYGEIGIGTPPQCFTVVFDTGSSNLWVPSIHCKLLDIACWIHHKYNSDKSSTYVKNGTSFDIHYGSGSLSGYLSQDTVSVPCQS
Sequence of Cathepsin D (P07339 169-412 limits assumed): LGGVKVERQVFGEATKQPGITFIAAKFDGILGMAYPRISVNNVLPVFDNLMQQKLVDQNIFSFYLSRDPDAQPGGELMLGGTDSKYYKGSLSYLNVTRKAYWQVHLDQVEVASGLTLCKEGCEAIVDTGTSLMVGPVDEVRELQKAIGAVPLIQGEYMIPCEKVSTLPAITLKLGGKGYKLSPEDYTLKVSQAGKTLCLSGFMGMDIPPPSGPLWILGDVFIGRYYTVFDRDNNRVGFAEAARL
The species named for test [6] is Homo sapiens. The experiment in a line: Selectivity ratio of IC50 for cathepsin D to IC50 for BACE1.

T1 sequence (P56817 whole entry): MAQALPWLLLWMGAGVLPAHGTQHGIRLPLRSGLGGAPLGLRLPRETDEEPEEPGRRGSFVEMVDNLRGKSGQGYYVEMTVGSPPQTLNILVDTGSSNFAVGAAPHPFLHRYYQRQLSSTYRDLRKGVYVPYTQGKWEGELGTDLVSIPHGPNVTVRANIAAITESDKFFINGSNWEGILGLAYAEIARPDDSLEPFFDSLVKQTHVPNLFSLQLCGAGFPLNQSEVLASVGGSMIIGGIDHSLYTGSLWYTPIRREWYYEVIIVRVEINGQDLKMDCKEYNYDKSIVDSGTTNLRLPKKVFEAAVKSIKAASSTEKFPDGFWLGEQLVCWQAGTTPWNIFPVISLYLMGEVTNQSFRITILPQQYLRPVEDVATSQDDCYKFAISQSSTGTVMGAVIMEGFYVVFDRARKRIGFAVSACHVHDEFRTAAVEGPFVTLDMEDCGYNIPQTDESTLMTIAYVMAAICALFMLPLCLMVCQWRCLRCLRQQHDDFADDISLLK

For `Oc1ccc(SCC(O)Cn2c(-c3ccccc3)cc3ccccc32)cc1` (stereo not given), the inhibition in test [1] came out at 86%; in test [2] it was 77%; in test [3], 72%. The same molecule came in with an IC50 in test [4] of 13.6 µM.

With `NCCNC(CSc1ccc2ccccc2c1)Cn1c2ccccc2c2ccccc21` (racemic), the IC50 in test [4] is 7.38 µM; in test [5], above 300 µM.

Take `OC(CSc1ccc2ccccc2c1)Cn1c(-c2ccccc2)cc2ccccc21` (stereo not given): the figures for the IC50 in test [4] and in test [5] were 6.66 µM and above 300 µM, respectively. The Ratio IC50 in test [6] was 50.

Consider `Cc1ccccc1SCC(O)Cn1c2c(c3ccccc31)CCC2` (stereo not given), for which the inhibition in test [1] worked out at 92%; in test [2], 89%; in test [3], 73%. This molecule came in with an IC50 in test [4] of 21.4 µM.

In test [4], `OC(CSc1ccc2ccccc2c1)C(O)Cn1c2ccccc2c2ccccc21` (stereo not given) showed an IC50 of 10.1 µM.

Consider `O[C@H](CSc1ccc2ccccc2c1)Cn1c2ccccc2c2ccccc21`, for which the IC50 in test [4] is 5.39 µM; in test [5] it was above 300 µM.

Take `OC(CSc1ccccc1F)Cn1c2ccccc2c2ccccc21` (stereo not given): the figures for the inhibition in test [1], in test [2] and in test [3] were 89%, 84% and 67%, respectively. Moreover, the IC50 in test [4] is 5.36 µM; in test [5], above 300 µM.

Take `Nc1cccc(SCC(O)Cn2c3ccccc3c3ccccc32)c1` (stereo not given): the inhibition in test [1] is 100%; in test [2], 87%; in test [3], 69%. Besides, in test [4], half-maximal inhibition (IC50) required 36.1 µM.

Take `c1ccc2cc(SCCCn3c4ccccc4c4ccccc43)ccc2c1`: the values for the IC50 in test [4] and in test [5] were 7.52 µM and above 300 µM, respectively.

As to `OC(CCn1c2ccccc2c2ccccc21)CSc1ccc2ccccc2c1` (stereo not given), the IC50 is 4.31 µM in test [4] and above 300 µM in test [5].

As to `OC(CSc1ccccc1F)Cn1c2c(c3ccccc31)CCCC2` (stereo not given), the results for the inhibition in test [1], in test [2] and in test [3] were 95%, 86% and 68%, respectively. In test [4], half-maximal inhibition (IC50) was put at 11 µM.

For `O=C(CSc1ccc2ccccc2c1)Cn1c2ccccc2c2ccccc21`, the IC50 in test [4] was above 80 µM.

In turn, `NC(CSc1ccc2ccccc2c1)Cn1c2ccccc2c2ccccc21` (racemic) registered an IC50 in test [4] of 15.7 µM.

As for `OC(CSc1ccc2ccccc2c1)CSc1ccc2ccccc2c1`, the IC50 in test [4] is above 30 µM.

With `CCc1ccccc1SCC(O)Cn1c(-c2ccccc2)cc2ccccc21` (stereo not given), the inhibition amounted to 80% in test [1], 72% in test [2] and 60% in test [3]. In test [4], this molecule had an IC50 of 10.3 µM.

Take `OC(CCSc1ccc2ccccc2c1)Cn1c2ccccc2c2ccccc21` (stereo not given): the values for the half-maximal inhibitory concentration (IC50) in test [4] and in test [5] were 6.74 µM and above 300 µM, respectively.

Regarding `O[C@@H](CSc1ccc2ccccc2c1)Cn1c2ccccc2c2ccccc21`, the results for the IC50 in test [4] and in test [5] were 7.98 µM and above 300 µM, respectively.

`OC(COc1ccc(Cc2ccccc2)cc1)CSc1ccccc1Cl` (stereo not given): the inhibition came to 81% in test [1], 73% in test [2] and 62% in test [3]. Also, the results for the 50% inhibitory concentration (IC50) in test [4] and in test [5] were 9.6 µM and above 300 µM, respectively.

Turning to `OC(CSc1ccccc1Cl)Cn1c2c(c3ccccc31)CCCC2` (stereo not given), the inhibition in test [1] worked out at 92%; in test [2], 99%; in test [3], 68%. For the same molecule, the results for the IC50 in test [4] and in test [5] were 8.28 µM and above 300 µM, respectively.

As for `OC(CSc1ccc2ccccc2c1)Cn1c2ccccc2c2ccccc21` (stereo not given), the inhibition was determined as 76% in test [1], 74% in test [2] and 64% in test [3]. For the same molecule, the results for the IC50 in test [4] and in test [5] were 4.93 µM and above 300 µM, respectively. For the same molecule, the Ratio IC50 in test [6] stood at 50.

Regarding `OC(CCn1c2ccccc2c2ccccc21)Cn1c2ccccc2c2ccccc21` (stereo not given), in test [4], the IC50 was above 100 µM.

With `OC(Cn1c2ccccc2c2ccccc21)Cn1c2ccccc2c2ccccc21`, the results for the IC50 in test [4] and in test [5] were 0.71 µM and above 300 µM, respectively. For the same molecule, in test [6], the Ratio IC50 is above 422.

Take `Cc1ccc(SCC(O)Cn2c3c(c4ccccc42)CCC3)cc1` (stereo not given): the inhibition in test [1] was 91%; in test [2] it was 81%; in test [3], 55%.

For the molecule `Oc1ccccc1SCC(O)Cn1c(-c2ccccc2)cc2ccccc21` (stereo not given), the inhibition in test [1] worked out at 86%; in test [2], 102%; in test [3], 87%. The molecule further displayed an IC50 in test [4] of 25.4 µM.

For the molecule `OC(CSc1ccccc1)Cn1c2ccccc2c2ccccc21` (stereo not given), the inhibition amounted to 86% in test [1], 85% in test [2] and 79% in test [3].

As to `OC(CSc1ccccc1F)Cn1c2c(c3ccccc31)CCC2` (stereo not given), the inhibition in test [1] was found to be 94%; in test [2] it was 82%; in test [3] it was 51%.

Regarding `Oc1ccc(SCC(O)COc2ccc(Cc3ccccc3)cc2)cc1` (stereo not given), the inhibition in test [1] is 94%; in test [2], 100%; in test [3], 85%. In addition, the IC50 in test [4] stood at 10.7 µM.

In test [4], `OC(CSc1ccc2ccccc2c1)Cn1ccc2ccccc21` (stereo not given) had an IC50 of 10.5 µM. This counts as double-digit micromolar.

With `OC(CSCCCc1ccccc1)Cn1c2c(c3ccccc31)CCC2` (stereo not given), the figures for the inhibition in test [1], in test [2] and in test [3] were 96%, 81% and 53%, respectively.

As to `OC(CSc1ccccc1)Cn1c2c(c3ccccc31)CCC2` (stereo not given), the inhibition in test [1] was determined as 85%; in test [2], 64%; in test [3] it was 35%.

`COc1ccc(SCC(O)Cn2c3c(c4ccccc42)CCCC3)cc1` (stereo not given): the results for the inhibition in test [1], in test [2] and in test [3] were 87%, 90% and 58%, respectively. In test [4], the 50% inhibitory concentration (IC50) is 15.2 µM.

With `OC(CSc1ccc2ccccc2c1)Cn1c2c(c3ccccc31)CCC2` (stereo not given), the results for the inhibition in test [1], in test [2] and in test [3] were 87%, 80% and 43%, respectively.

`CCc1cccc2ccn(CC(O)CSc3ccc(F)cc3)c12` (stereo not given): the inhibition in test [1] turned out to be 86%; in test [2], 41%; in test [3], 48%.

As for `OC(Cn1c2ccccc2c2ccccc21)C(O)Cn1c2ccccc2c2ccccc21` (stereo not given), the IC50 in test [4] was 8.82 µM; in test [5] it was above 300 µM.

For the molecule `CCc1cccc2ccn(CC(O)CSc3ccc(OC)cc3)c12` (stereo not given), the inhibition in test [1] was 83%; in test [2], 54%; in test [3] it was 11%.

Turning to `c1ccc2cc(SCC(Cn3c4ccccc4c4ccccc43)N3CCNCC3)ccc2c1` (racemic), the IC50 in test [4] was above 50 µM.

For the molecule `COc1ccc(SCC(O)Cn2c3ccccc3c3ccccc32)c(OC)c1` (stereo not given), the inhibition worked out at 80% in test [1], 69% in test [2] and 22% in test [3].

As to `Cc1c(C)n(CC(O)CSc2ccccc2Cl)c2ccccc12` (stereo not given), the figures for the inhibition in test [1], in test [2] and in test [3] were 100%, 93% and 68%, respectively.

As to `CCc1cccc2ccn(CC(O)CSc3ccccc3Cl)c12` (stereo not given), the inhibition stood at 99% in test [1], 87% in test [2] and 65% in test [3]. Besides, the IC50 in test [4] is 7.52 µM; in test [5], above 300 µM.
